# In ChEMBL document CHEMBL3112512, “Microwave induced three-component synthesis and antimycobacterial activity of benzopyrazolo[3,4-b]quinolindiones” (2014):
# Key:
# Assay type in all cases: functional
# [1] = system: Mycobacterium intracellulare; assay: Antimycobacterial activity against Mycobacterium intracellulare MNT1408 clinical isolate by MTT assay
# [2] = system: Mycobacterium scrofulaceum; assay: Antimycobacterial activity against Mycobacterium scrofulaceum MNT1193 clinical isolate by MTT assay
# Mycobacterium szulgai = assay: Antimycobacterial activity against Mycobacterium szulgai MNT1100 clinical isolate by MTT assay
# [3] = system: Mycolicibacterium fortuitum; assay: Antimycobacterial activity against Mycobacterium fortuitum MNT1073 clinical isolate by MTT assay
# Mycobacteroides chelonae = assay: Antimycobacterial activity against Mycobacterium chelonae MNT1407 clinical isolate by MTT assay
# [4] = system: Mycobacterium tuberculosis; assay: Antimycobacterial activity against streptomycin, isoniazid, rifampicin, ethambutol and pirazynamide-susceptible Mycobacterium tuberculosis H37Rv ATCC 27294 by MTT assay
SMILES,MIC [1],MIC [2],MIC (Mycobacterium szulgai),MIC [3],MIC (Mycobacteroides chelonae),MIC [4]
NNC(=O)c1ccncc1 [ISONIAZID],> 0.5 µg/mL,> 0.5 µg/mL,> 0.5 µg/mL,> 0.5 µg/mL,> 0.5 µg/mL,0.25 µg/mL
O=C1C(=O)c2ccccc2C2=C1C(c1ccccc1)c1c(-c3ccccc3)n[nH]c1N2 (stereo not given),> 32 µg/mL,> 32 µg/mL,> 32 µg/mL,> 32 µg/mL,> 32 µg/mL,> 32 µg/mL
COc1cc(-c2c3c(nc4c2c(C)nn4-c2ccccc2)-c2ccccc2C(=O)C3=O)cc(OC)c1OC,> 32 µg/mL,> 32 µg/mL,> 32 µg/mL,> 32 µg/mL,> 32 µg/mL,> 32 µg/mL
Cc1nn(-c2ccccc2)c2nc3c(c(-c4ccccc4)c12)C(=O)C(=O)c1ccccc1-3,> 32 µg/mL,> 32 µg/mL,> 32 µg/mL,> 32 µg/mL,> 32 µg/mL,≤ 2 µg/mL
COc1ccc(C2C3=C(Nc4[nH]nc(-c5ccccc5)c42)c2ccccc2C(=O)C3=O)cc1 (stereo not given),> 32 µg/mL,> 32 µg/mL,> 32 µg/mL,> 32 µg/mL,> 32 µg/mL,> 32 µg/mL
CO[C@H]1/C=C/O[C@@]2(C)Oc3c(C)c(O)c4c(O)c(c(/C=N/N5CCN(C)CC5)c(O)c4c3C2=O)NC(=O)/C(C)=C\C=C\[C@H](C)[C@H](O)[C@@H](C)[C@@H](O)[C@@H](C)[C@H](OC(C)=O)[C@@H]1C [RIFAMPIN],> 0.5 µg/mL,> 0.5 µg/mL,> 0.5 µg/mL,> 0.5 µg/mL,0.125 µg/mL,0.125 µg/mL
Cc1ccc(-c2c3c(nc4c2c(C)nn4-c2ccccc2)-c2ccccc2C(=O)C3=O)cc1,> 32 µg/mL,> 32 µg/mL,> 32 µg/mL,> 32 µg/mL,> 32 µg/mL,4 µg/mL
Cc1nn(-c2ccccc2)c2nc3c(c(-c4ccc(Cl)cc4)c12)C(=O)C(=O)c1ccccc1-3,> 32 µg/mL,> 32 µg/mL,> 32 µg/mL,> 32 µg/mL,> 32 µg/mL,> 32 µg/mL
Cc1nn(-c2ccccc2)c2nc3c(c(-c4ccc(F)cc4)c12)C(=O)C(=O)c1ccccc1-3,> 32 µg/mL,> 32 µg/mL,> 32 µg/mL,> 32 µg/mL,> 32 µg/mL,4 µg/mL
Cc1ccc(-c2n[nH]c3nc4c(c(-c5ccc([N+](=O)[O-])cc5)c23)C(=O)C(=O)c2ccccc2-4)cc1,> 32 µg/mL,> 32 µg/mL,> 32 µg/mL,> 32 µg/mL,> 32 µg/mL,> 32 µg/mL
O=C1C(=O)c2ccccc2C2=C1C(c1ccccc1)c1c(-c3ccc([N+](=O)[O-])cc3)n[nH]c1N2 (stereo not given),> 32 µg/mL,> 32 µg/mL,> 32 µg/mL,> 32 µg/mL,> 32 µg/mL,32 µg/mL
Cc1ccc(C2C3=C(Nc4[nH]nc(-c5ccccc5)c42)c2ccccc2C(=O)C3=O)cc1 (stereo not given),> 32 µg/mL,> 32 µg/mL,> 32 µg/mL,> 32 µg/mL,> 32 µg/mL,> 32 µg/mL
COc1ccc(-c2c3c(nc4[nH]nc(-c5ccc(Cl)cc5)c24)-c2ccccc2C(=O)C3=O)cc1,> 32 µg/mL,> 32 µg/mL,> 32 µg/mL,> 32 µg/mL,> 32 µg/mL,> 32 µg/mL
O=C1C(=O)c2ccccc2C2=C1C(c1ccccc1)c1c(-c3ccc(Cl)cc3)n[nH]c1N2 (stereo not given),> 32 µg/mL,> 32 µg/mL,> 32 µg/mL,> 32 µg/mL,> 32 µg/mL,> 32 µg/mL
Cc1ccc(-c2n[nH]c3c2C(c2ccccc2)C2=C(N3)c3ccccc3C(=O)C2=O)cc1 (stereo not given),> 32 µg/mL,> 32 µg/mL,> 32 µg/mL,> 32 µg/mL,> 32 µg/mL,16 µg/mL
